The values that follow come from US12152030B2 (NOVOSTAR PHARMACEUTICALS, LTD., priority 2019, dated 2024).

The target of one assay is MNK1 (Homo sapiens, UniProt Q9BUB5). In words: MNK biological enzyme assay (HTRF kinase assay), MNK1. The class given is biochemical. On the set-up: purchased ThermoFisher PV6023. The conditions noted are these: 3 ng/ul MNK1, 1 μM STK1 peptide, 100 μM ATP. As to the method: (§1) A HTRF kinase assay kit (Cisbio, catalog number 62ST1PEB) was used to determine the MNK inhibitory activity of the compounds. All kinase reactions were performed in the reaction buffer (provided in the kit). The final MNK1 reaction involved 3 ng/ul recombinant MNK1 (ThermoFisher, PV6023), 1 μM MNK substrate peptide STK1 (provided in the kit), 100 μM ATP, and different concentrations of the inhibitory compounds of interest. The final MNK2 reaction involved 1 ng/μl recombinant MNK2 (ThermoFisher, PV5607), 1 μM MNK substrate peptide STK1 (provided in the kit), 100 μM ATP, and different concentrations of the inhibitory compounds of interest. The final DMSO concentration in each of the reactions was 1%.
MNK1, sequence (Q9BUB5 whole entry): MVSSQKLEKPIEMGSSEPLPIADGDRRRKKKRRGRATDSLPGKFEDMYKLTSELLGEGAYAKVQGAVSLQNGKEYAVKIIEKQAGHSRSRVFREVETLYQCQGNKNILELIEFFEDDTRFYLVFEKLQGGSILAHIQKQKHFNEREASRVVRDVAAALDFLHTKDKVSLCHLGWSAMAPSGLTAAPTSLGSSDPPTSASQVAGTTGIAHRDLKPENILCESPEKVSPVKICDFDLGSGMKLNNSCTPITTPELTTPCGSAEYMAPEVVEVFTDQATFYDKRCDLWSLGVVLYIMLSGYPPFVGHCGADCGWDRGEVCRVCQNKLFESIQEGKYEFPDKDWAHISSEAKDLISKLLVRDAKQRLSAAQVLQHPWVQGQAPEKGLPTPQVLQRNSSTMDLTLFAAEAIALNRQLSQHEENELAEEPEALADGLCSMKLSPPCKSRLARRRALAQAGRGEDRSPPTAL
(§2) The kinase reaction was performed in a final volume of 10 μl in a 384-well white flat-bottomed polystyrene plate. The MNK1/2 enzyme was pre-incubated with the compound and substrate peptide for 5 minutes, and then ATP was added thereto. After addition of ATP, the kinase reaction was incubated at 25° C. for 120 minutes or 60 minutes. The reaction was subsequently terminated by adding 5 μl of EU3+ substrate antibody detection reagent and 5 μl of XL665 detection reagent, and incubating for another 60 minutes. The luminescent signal was detected with an EnVision microplate reader counter (Perkin Elmer), and the signal from 10-point dilution series of the compounds was used to calculate the compound concentration (IC50) required to achieve 50% inhibition of enzyme activity.
(§3) In this respect, IC50 values which are less than 0.01 μM were marked as “+++”, which are from 0.01 to 0.1 μM were marked as “++”, and which are greater than 0.1 and up to 10.0 μM were marked as “+”, and NA meant “not detected”.

Another assay has as its system Phosphorylated eIF4E. Briefly: Intracellular peIF4E signaling assay. Format: cell-based. The following applies: 2 h; two hours incubation at 37° C.; read-out: peIF4E signaling cell assay IC50. The protocol:
Phosphorylated eIF4E was determined using CisBio peIF4E assay kit (CisBio, catalog number 64EF4PEG). The cells were plated in a 96-well cell culture plate in a volume of 90 μL, and the number of cells per well was 5*10^4. The compounds (10×) were subjected to 3-fold serial dilution, added to the cell plate in a volume of 10 μL with the final DMSO concentration being 1%, and incubated at 37° C. for two hours. The cell plate was centrifuged at 300 g for 5 minutes, and the cell supernatant was carefully removed. The cell plate was immediately added with 50 μL of cell lysis buffer […] and incubated at 25° C. with shaking for at least 30 minutes. After homogenization by pipetting, 16 μL of cell lysate was transferred from the 96-well cell culture plate to a 384-well small-volume microwell plate. According to the kit instruction, an antibody mixture solution was prepared with a detection buffer, and was added in a volume of 4 μL to the 384-well small-volume microwell plate containing the cell lysate. The plate was covered with a plate sealer, incubated overnight at 25° C., and was read for fluorescence emission at two different wavelengths (665 nm and 615 nm) on the EnVision microplate reader counter. The emission ratio was imported into a GraphPadPrism software to fit the compound concentration (IC50) required for 50% inhibition of enzyme activity.
In this respect, IC50 values which are less than 0.05 μM were marked as “+++”, which are from 0.05 to 1.0 μM were marked as “++”, and which are greater than 1.0 and up to 100 μM were marked as “+”, and NA meant “not detected”.

Another assay deals with MNK2 (Homo sapiens, UniProt Q9HBH9). In words: MNK biological enzyme assay (HTRF kinase assay), MNK2. On the set-up: purchased ThermoFisher PV5607. The conditions noted are these: 1 ng/μl MNK2, 1 μM STK1 peptide, 100 μM ATP. Format: biochemical. As to the method:
as §1, §2, §3

Each structure is given as a SMILES string. Where a name gives a salt, the structure may show the parent alone. Some results are limits rather than exact numbers.

MNK2, sequence (Q9HBH9 whole entry): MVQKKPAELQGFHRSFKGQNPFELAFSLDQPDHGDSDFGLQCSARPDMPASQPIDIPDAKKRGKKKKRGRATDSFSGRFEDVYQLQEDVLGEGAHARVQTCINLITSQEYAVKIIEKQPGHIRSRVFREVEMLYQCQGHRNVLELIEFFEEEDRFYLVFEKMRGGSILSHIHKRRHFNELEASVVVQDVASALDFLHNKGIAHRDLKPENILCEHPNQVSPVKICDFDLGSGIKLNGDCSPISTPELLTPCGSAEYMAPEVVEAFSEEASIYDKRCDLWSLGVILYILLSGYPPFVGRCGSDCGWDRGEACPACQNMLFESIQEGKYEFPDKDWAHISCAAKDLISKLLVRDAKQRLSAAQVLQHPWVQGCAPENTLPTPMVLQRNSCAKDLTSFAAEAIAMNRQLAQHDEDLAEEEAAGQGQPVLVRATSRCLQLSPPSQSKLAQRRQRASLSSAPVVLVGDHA

For `Cc1c2c(c(=O)n3c1C(=O)NC3(C)C)Nc1cc(N)ncc1C2` [Compound 4, 8-amino-3,3,12-trimethyl-2,3,6,11-tetrahydroimidazo[1,5′:1.6]pyrido[3,4-b][1,6]naphthyridine derivative-1,5-dione hydrochloride], the IC50 at MNK1 was 10 to 100 nM; in the assay on Phosphorylated eIF4E it was 50 to 1000 nM; at MNK2, 10 to 100 nM.

Regarding `Cc1cc2c(cn1)Cc1c(C)c3n(c(=O)c1N2)C1(CCCCC1)NC3=O` [Compound 12, 8,12-dimethyl-6,11-dihydro-1H-spiro[cyclohexane-1,3-imidazo[1,5:1,6]pyrido[3,4-b][1,6]naphthyridine]-1,5(2H)-dione hydrochloride], the IC50 in the assay with Phosphorylated eIF4E was 50 to 1000 nM.

Regarding `Cc1c2c(c(=O)n3c1C(=O)NC31CCCCC1)Nc1cc(NC(=O)C(C)C)ncc1C2` [Compound 24, N-(12methyl-1,5-dioxo-1,5,6,11-tetrahydro-2H-spiro[cyclohexane-1,3-imidazole[1,5:1,6]pyrido[3,4b][1,6]naphthyridine]-8-yl)isobutyramide], the IC50 against MNK1 is < 10 nM; in the assay on Phosphorylated eIF4E, < 50 nM; against MNK2 it was < 10 nM.

For `Cc1cc2[nH]c3c(=O)n4c(c(C)c3c(=O)c2cn1)C(=O)NC41CCCCC1` [Compound 11, 8′,12′-dimethyl-1′H-spiro[cyclohexane-1,3′-imidazo[1′,5′:1,6]pyrido[3,4-b][1,6]naphthyridine]-1′,5′,11′(2′H,6′H)-trione], the IC50 in the assay on Phosphorylated eIF4E fell in the range of 1000 to 100000 nM.

On to `Cc1c2n(c(=O)c3[nH]c4cc(N)ncc4c(=O)c13)C(C)(C)NC2=O` [Compound 3], for which the 50% inhibitory concentration (IC50) was in the range of 10 to 100 nM against MNK1, 50 to 1000 nM in the assay on Phosphorylated eIF4E and 10 to 100 nM against MNK2.

With `Cc1c2c(c(=O)n3c1C(=O)NC31CCCC1)Nc1cc(N)ncc1C2` [Compound 6, 8′-amino-12′-methyl-6′,11′-dihydro-2′H-spiro[cyclopentane-1,3′-imidazo[1′,5′:1,6]pyrido[3,4-b][1,6]naphthyridine]-1′,5′-dione], the IC50 against MNK1 was 10 to 100 nM; in the assay on Phosphorylated eIF4E, < 50 nM; at MNK2, < 10 nM.

On to `Cc1c2n(c(=O)c3[nH]c4cc(N)ncc4c(=O)c13)C(C)(c1cccc(Cl)c1)NC2=O` (centres unmarked) [Compound 13, 8-amino-3-(3-chlorophenyl)-3,12-dimethyl-2,3-dihydroimidazole[1′,5′:1,6]pyrido[3,4-b][1,6]naphthopyridin-1,5,11(6H)-trione], for which the IC50 on MNK1 is 10 to 100 nM; in the assay on Phosphorylated eIF4E, 50 to 1000 nM; at MNK2, 10 to 100 nM.

`Cc1c2c(c(=O)n3c1C(=O)NC31CCCCC1)Nc1ccncc1C2` [Compound 16, 12-methyl-6,11-dihydro-1H-spiro[cyclohexane-1,3-imidazo[1,5:1,6]pyrido[3,4-b][1,6]naphthyridine]-1,5(2H)-dione hydrochloride]: the values for the IC50 on MNK1, in the assay on Phosphorylated eIF4E and at MNK2 were 10 to 100 nM, < 50 nM and < 10 nM, respectively.

As for `C=CC1(CCO)NC(=O)c2c(C)c3c(=O)c4cnc(N)cc4[nH]c3c(=O)n21` (centres unmarked) [Compound 19, 8-amino-3-(2-hydroxyethyl)-12-methyl-3-ethenyl-2,3-dihydroimidazo[1′,5′:1,6]pyrido[3,4-b][1,6]naphthyridine-1,5,11(6H)-trione], the 50% inhibitory concentration (IC50) with Phosphorylated eIF4E lay within 1000 to 100000 nM.

Turning to `Cc1c2n(c(=O)c3[nH]c4cc(N)ncc4c(=O)c13)C1(CCCCC1)NC2=O` [Compound 1, 8′-amino-12′-methyl-2′H-spiro[cyclohexane-1,3′-imidazo[1′,5′:1,6]pyrido[3,4-b][1,6]naphthyridine]-1′,5′,11′(6′H)-trione], the IC50 against MNK1 was 10 to 100 nM; with Phosphorylated eIF4E it was < 50 nM; against MNK2, 10 to 100 nM.

With `CCC(=O)Nc1cc2c(cn1)Cc1c(C)c3n(c(=O)c1N2)C1(CCCCC1)NC3=O` [Compound 25], the IC50 is 10 to 100 nM against MNK1, < 50 nM with Phosphorylated eIF4E and < 10 nM at MNK2.

`Cc1c2c(c(=O)n3c1C(=O)NC3(C)c1cccc(Cl)c1)Nc1cc(N)ncc1C2` (centres unmarked) [Compound 14, 8-amino-3-(3-chlorophenyl)-3,12-dimethyl-2,3,6,11-tetrahydroimidazole[1′,5′:1,6]pyrido[3,4-b][1,6]naphthyridine-1,5-dione hydrochloride]: the IC50 with Phosphorylated eIF4E lay within 50 to 1000 nM.

As for `Cc1c2c(c(=O)n3c1C(=O)NC3(C)c1cccc(F)c1)Nc1cc(N)ncc1C2` (centres unmarked) [Compound 10, hydrochloride], the values for the IC50 against MNK1, in the assay on Phosphorylated eIF4E and against MNK2 were 10 to 100 nM, 50 to 1000 nM and 10 to 100 nM, respectively.

As to `Cc1c2n(c(=O)c3[nH]c4ccncc4c(=O)c13)C1(CCCCC1)NC2=O` [Compound 15, 12′-methyl-1′H-spiro[cyclohexane-1,3′-imidazo[1′,5′:1,6]pyrido[3,4-b][1,6]naphthyridine]-1′,5′,11′(2′H,6′H)-trione], in the assay on Phosphorylated eIF4E, the half-maximal inhibitory concentration (IC50) is 50 to 1000 nM.

On to `Cc1c2c(c(=O)n3c1C(=O)NC3(C)c1ccccc1)Nc1cc(N)ncc1C2` (centres unmarked) [Compound 8, 8-amino-3,12-dimethyl-3-phenyl-2,3,6,11-tetrahydroimidazo[l′,5′:1,6]pyrido[3,4-b][1,6]naphthyridine-1,5-dione, hydrochloride], for which the IC50 at MNK1 lay in the range of 10 to 100 nM; in the assay on Phosphorylated eIF4E, 50 to 1000 nM.

Regarding `Cl.[2H]C1([2H])c2cnc(N)cc2Nc2c1c(C)c1n(c2=O)C2(CCCCC2)NC1=O` [Compound 20, 8′-amino-12′-methyl-6′,11′-dihydro-2′H-spiro[cyclohexane-1,3′-imidazo[1′,5′:1,6]pyrido[3,4-b][1,6]naphthyridine]-1′,5′-dione-11′,11′-d2 hydrochloride], the 50% inhibitory concentration (IC50) is 10 to 100 nM at MNK1, < 50 nM in the assay with Phosphorylated eIF4E and < 10 nM on MNK2.

Regarding `Cc1c2n(c(=O)c3[nH]c4cc(N)ncc4c(=O)c13)C1(CCN(C)CC1)NC2=O` [Compound 17, 8-amino-1′,12-dimethyl-2H-spiro[imidazo[1′,5′:1,6]pyrido[3,4-B][1,6]naphthyridine-3,4′-piperidine]-1,5,11(6H)-trione], in the assay with Phosphorylated eIF4E, the 50% inhibitory concentration (IC50) lay within 1000 to 100000 nM.

As for `Cc1c2c(c(=O)n3c1C(=O)NC31CCCCC1)Nc1cc(NC(=O)OC(C)(C)C)ncc1C2` [Compound 23, Tert-Butyl (12-methyl-1,5-dioxo-1,5,6,11-tetrahydro-2H-spiro[cyclohexane-1,3-imidazole[1,5:1,6]pyrido[3,4b][1,6]naphthalene]-8-yl)aminoformate], the IC50 is < 10 nM against MNK1, < 50 nM with Phosphorylated eIF4E and < 10 nM against MNK2.

On to `Cc1c2c(c(=O)n3c1C(=O)NC31CCN(C)CC1)Nc1cc(N)ncc1C2` [Compound 18, 8-amino-1′,12-dimethyl-6,11-dihydro-2H-spiro[imidazo[1′,5′:1,6]pyrido[3,4-b][1,6]naphthyridine-3,4′-piperidine]-1,5-dione], for which the IC50 in the assay with Phosphorylated eIF4E was 50 to 1000 nM.

Regarding `CNc1cc2c(cn1)Cc1c(C)c3n(c(=O)c1N2)C1(CCCCC1)NC3=O` [Compound 22, 12′-methyl-8′-(methylamino)-6′,11′-dihydro-1′H-spiro[cyclohexane-1,3′-imidazo[1′,5′:1,6]pyrido[3,4-b][1,6]naphthopyridine]-1′,5′(2′H)-dione hydrochloride], the figures for the IC50 against MNK1, in the assay on Phosphorylated eIF4E and against MNK2 were 10 to 100 nM, < 50 nM and 10 to 100 nM, respectively.

For `Cc1c2c(c(=O)n3c1C(=O)NC31CCCCC1)Nc1cc(NC(=O)C3CCC3)ncc1C2` [Compound 27], the IC50 on MNK1 was 10 to 100 nM; in the assay on Phosphorylated eIF4E it was < 50 nM; on MNK2, < 10 nM.

With `Cc1c2n(c(=O)c3[nH]c4cc(N)ncc4c(=O)c13)C(C)(c1cccc(F)c1)NC2=O` (centres unmarked) [Compound 9, 8-amino-3-(3-fluorophenyl)-3,12-dimethyl-2,3-dihydroimidazo[1′,5′:1,6]pyrido[3,4-b][1,6]naphthopyridin-1,5,11(6H)-trione], the results for the half-maximal inhibitory concentration (IC50) against MNK1 and in the assay on Phosphorylated eIF4E were 10 to 100 nM and 50 to 1000 nM, respectively.
